Where two headings read alike, the source gives them in different places.

Assay [1] has as its system MDA-MB231TXSA cells. The assay can be described thus: Cell viability, crystal violet colorimetric assay. Format: cell-based. Conditions: 72 hrs; for IC50: tested at 0.02-0.1 mM, read-out: IC50 values MB231-TXSA. The method, then: (§1) Immortalised osteolytic metastatic breast cancer cell lines, a) hormone-dependent MCF-7 and b) hormone refractory MDA-MB231, together with the daughter line MDA-MB231TXSA were incubated with 5 gradual concentrations of compounds of the invention as described below. Cell viability was assessed with the crystal violet colorimetric assay and IC50s were evaluated.
(§2) Medium was removed from cell cultures and cells were fixed with 4% v/v formaldehyde for 5 mins at room temperature. Formalin was then removed and CV added for 10 mins at room temperature followed by several washes with dsH2O. Samples were allowed to dry overnight. The following day, 10% acetic acid was added for 15 mins and optical density at 620 nm was measured. Optical densities versus compound concentrations were plotted in graphs and IC50s estimated by linear regression analysis using the WorkOut (VictorX4) software.
(§3) MCF-7, MDA-MB231 and MDA-MB231TXSA cells were seeded in 96-well-plates and allowed to attach overnight. The following day media were replaced with fresh media containing the following compounds: Both free tetraethyl methylbisphosphonate (bpp(OEt)) and bpp(OEt) in 1:1 combination with the free chromanol and the biphosphonate conjugates were tested at 5 gradual concentrations of: 0.02, 0.04, 0.06, 0.08 and 0.1 mM.
(§4) Cells were cultured in the presence of the compounds for 72 hrs and viability was assessed on day 3 by crystal violet assay. The cell lines were selected for their high bone metastatic potential. The fluorescently transfected line MB231TXSA, derived from line MB231 is also used in animal studies (WP7).

Assay [2] relates to MDA-MB231 cells. The assay can be described thus: Cell viability, crystal violet colorimetric assay. It is filed as cell-based. Conditions: 72 hrs; for IC50: tested at 0.02-0.1 mM; for EC50: * denotes EC50 value, read-out: EC50 value (starred) MB231. The method, then:
as §1, §2, §3, §4

Assay [3] can be described thus: Binding to pre-loaded bone slices / hydroxyapatite after washing. The following applies: pre-loaded whale dentine or osteologic slides, unbound drug washed away. The source says: (§5) In a separate experiment, pre-loaded bone slices (whale dentine) or commercial forms of hydroxyapatite (osteologic slides) with either free γ-tocopherol (γToc) or γ-tocopherol-bpp(OEt) (BP-γToc) and then washed away unbound drug.

In assay [4] the test system is metastatic breast cancer cell lines (MCF-7, MDA-MB231, MDA-MB231TXSA). The assay can be described thus: Cell viability / antiproliferative activity, breast cancer lines. Format: cell-based. Conditions: for antiproliferative activity compared with bpp(OEt): esterified compounds and 1:1 mixtures; for effect on cell viability: viability assays and IC50s, 72 hrs. The protocol: as §1, §2, §3, §4

Assay [5] relates to MCF-7 cells. The assay can be described thus: Cell viability, crystal violet colorimetric assay. Format: cell-based. The following applies: 72 hrs; for IC50: tested at 0.02-0.1 mM, unstarred values; for EC50: * denotes EC50 value, read-out: EC50 value (starred) MCF-7. The protocol: as §1, §2
MCF-7, MDA-MB231 and MDA-MB231TXSA cells were seeded in 96-well-plates and allowed to attach overnight. […]
as §4

In assay [6] the test system is osteoclasts from RAW264.7 and Human PBMC. The assay is described as follows: Resorption on pre-loaded whale dentine / osteologic slides (pit formation). Format: cell-based, murine.
Source text: Zoledronic acid was used as control.
(§6) Human peripheral blood mononuclear cells (PBMCs) and the RAW264.7 murine monocytic cell line were differentiated into osteoclast-like cells in the presence of RANKL plus M-CSF and have been used as model systems of osteoclastogenesis. Osteoclast-like cells, from Giant Cell Tumours (GCT) of bone specimens from three independent donors were used to investigate the effect of compounds of the invention on the bone resorbing activity of mature osteoclasts.
Human PBMCs were isolated from normal healthy donors isolated from the buffy coats acquired from the local Red Cross Blood Service. The cells were diluted in Hanks Balanced Salt Solution (HBSS) and separated by gradient centrifugation with Lymphoprep™. Isolated cells were resuspended in α MOD, 10% FCS, L-glutamine (2 mM), Hepes (20 mM), supplemented with M-CSF (25 ng/ml), 1α,25(OH)2 vitamin D3 (10 nM) and dexamethasone (10 nM) and plated into 96-well plates containing whale dentine slices, for the bone resorption assay or directly into wells for TRAP staining. The following day, media were removed and replaced with media as above, supplemented with RANKL (100 ng/ml) in the presence or absence of increasing concentrations of compounds of the invention. Medium and treatments were replaced every three days.
(§7) Cells were cultured in 96-well plates at a density of 1×10^4 cells/well in DMEM medium with 10% FCS, L-glutamine (2 mM) and Hepes (20 mM). Cells were allowed to attach for 4 hrs before treatment with RANKL (50 ng/ml) in the presence or absence of increasing concentrations of compounds of the invention as above. Medium and treatments were replaced on day three and TRAP activity determined on day 5. The overall number of viable cells were determined by crystal violet staining.
Whale dentine slices will be washed in extran, rinsed with distilled water, washed in 70% ethanol and dried overnight. The dentine slices mounted on stubs, carbon-coated and visualised on a Philips XL-20 scanning electron microscope, (SEM) as previously described. Images will be analysed using ImageQuant software and the area of resorption determined for each dentine slice (quadruplicate dentine slices for each treatment). Results are expected to be average resorption area +/− standard errors of the mean (SEM) and the significant differences between treatments will be determined using Students t-tests (2-tailed, unpaired).
as §5

Assay [7] has as its system RAW264.7 cells. The assay is described as follows: In vitro osteoclastogenesis of RAW264.7 (TRAP staining). Format: cell-based, murine. Conditions: RANKL-differentiated; γ-tocopherol at 1 μg/ml and 201 μg/ml; bpp(OEt) at increasing concentrations; FIG. 4. The method, then:
as §6, §7
Osteoclast cultures established by the differentiation of RAW264.7 cells in wells were fixed and stained for tartrate resistant acid phosphatase (TRAP) as recommended by the manufacturer on days 4 and 5. TRAP positive cells were visualised by light microscopy and images taken with a digital camera.

Assay [8] concerns breast and prostate cancer metastatic cell lines. The assay is described as follows: Dose response of cell viability of breast and prostate cancer cells (FIG. 1). It is filed as cell-based.
Assay [9] has as its system metastatic breast cancer lines. The assay is described as follows: DAPI staining of apoptotic nuclei. It is filed as cell-based. The following applies: cells treated with IC50 concentrations. The method, then:
Compounds with statistically significant decrease in viability were further examined to determine whether their effect was due to induced apoptosis based on morphologic criteria in DAPI-stained cells. […] Pro-apoptotic efficacies were compared using two-way analysis of Variance (ANOVA) followed by Bonferroni post-tests.
Growth medium was removed and cells were fixed with 4% v/v formaldehyde in PBS for 5 mins at room temperature. Fixed cells were washed once with PBS and incubated with 1 μg/ml DAPI in PBS for 20 mins at 37° C. Rinsed with PBS and mounted in mounting medium. Coverslips were sealed on glass slides and examined for the presence of apoptotic cells by fluorescence microscopy (see FIG. 2).

For assay [10], the system named is Caspase-3 activity in MB231 breast cancer cell-line. The assay is described as follows: Caspase-3 enzymatic activity assay. It is filed as cell-based. Conditions: IC50 concentrations, two-way ANOVA with Bonferroni post-tests. The protocol: Cells were grown in 12 well-plates in the presence of IC50 concentrations of compounds of the invention or culture medium with 0.1% v/v ethanol as control and were washed with PBS and incubated with lysis buffer for 15 mins at 4° C. Lysates were centrifuged at 15000 g. 20 μl of each lysate suspension was incubated with 100 μl of protease buffer containing 10 μM of fluorescent substrate zDEVD-AFC (3 samples/lysate) for 4 hrs at room temperature. Caspase-3 enzymatic activity was measured every 1 hr by fluorescence with excitation at 405 nm and emission at 515/30 nm.
Fluorescence measurements were plotted in graphs against time and were statistically analysed by two-way ANOVA followed by Bonferroni post-tests to identify statistically significant apoptotic activities of compounds of the invention (see FIG. 3).

With `CCOP(=O)(OCC)C(CCC(=O)O)P(=O)(OCC)OCC` [bpp(OEt), Tetra Ethyl 4,4-bis(phosphono)-butanoic Acid, reference compound], the IC50 is 441 µM in assay [1] (Exp.1); 129 µM in assay [1] (Exp.2, unstarred values); 136 µM in assay [1] (Exp.3); 179 µM in assay [1] (Exp.4); 106 µM in assay [2] (Exp.1, unstarred values); 242 µM in assay [2] (Exp.2). Further, in assay [5] (Exp.1), the IC50 was 107 µM. The EC50 stood at 74.2 µM in assay [2] (Exp.3); 710 µM in assay [2] (Exp.4); 143 µM in [5] (Exp.2); 365 µM in assay [5] (Exp.3); 1980 µM in [5] (Exp.4). Besides, the “binding to bone substrate / bone mineral” value in assay [3] is listed as “high affinity for bone”. Moreover, the “antiproliferative/proapoptotic effect in metastatic breast cancer cell-lines” value in [4] is “did not have antiproliferative/proapoptotic effect”. In addition, the “anti-resorptive activity of the free bisphosphonate” value in assay [6] is “minimal anti-resorptive activity”. Further, the “osteoclastogenesis of Raw264.7” value in assay [7] was “inhibited osteoclastogenesis in a dose-dependent manner”. In assay [8], the “cell viability on breast and prostate cancer metastatic cell lines” value is listed as “without effect”.

`Cc1c(C)c2c(c(C)c1O)CC[C@@](C)(CCC[C@H](C)CCC[C@H](C)CCCC(C)C)O2` [α-toc, α-tocopherol, reference compound]: the IC50 in [1] (Exp.3) worked out at 137 µM; in assay [1] (Exp.4), 88.7 µM; in assay [2] (Exp.3, unstarred values), 103 µM; in [5] (Exp.3), 54.7 µM; in assay [5] (Exp.4) it was 54.5 µM. The EC50 in assay [2] (Exp.4) was 131 µM.

As for `CCOP(=O)(OCC)C(CCC(=O)Oc1c(C)c(C)c2c(c1C)CCC(C)(CCCC(C)CCCC(C)CCCC(C)C)O2)P(=O)(OCC)OCC` (stereo not drawn) [α-toc-bpp(OEt), α-Tocopheryl Bisphosphonic Ester], the IC50 in [1] (Exp.3) is 98.1 µM; in assay [1] (Exp.4) it was 73 µM; in [2] (Exp.3, unstarred values) it was 128 µM; in [2] (Exp.4, unstarred values), 281 µM; in assay [5] (Exp.4) it was 76.8 µM. Also, the “antiproliferative activity compared with bpp(OEt)” value in [4] is reported as “increased”. For the same compound, in assay [4], the “effect on cell viability” value is given as “reduced cell viability”. Also, the EC50 in assay [5] (Exp.3) came out at 152 µM.

Take `CC(C)=CCC/C(C)=C/CC/C(C)=C/CC[C@]1(C)CCc2cc(O)c(C)c(C)c2O1` [γ-Tocotrienol]: the “cell viability on breast and prostate cancer metastatic cell lines” value in assay [8] was “inhibited in a dose-dependent manner”.

Turning to “α-tocopheryl Bisphosphonic Acid [α-toc-bpp(OH)]”, the IC50 is 88.8 µM in [1] (Exp.3); 75.9 µM in assay [1] (Exp.4); 61.6 µM in assay [2] (Exp.3, unstarred values); 238 µM in assay [2] (Exp.4, unstarred values); 64.1 µM in assay [5] (Exp.4). In assay [4], the “antiproliferative activity compared with bpp(OEt)” value is given as “increased”. Further, the “effect on cell viability” value in [4] is reported as “reduced cell viability”. In addition, the EC50 in [5] (Exp.3) worked out at 351 µM.

Take “γ-tocopheryl Diphosphonic Acid [γ-toc-bpp(OH)]”: the IC50 in [1] (Exp.1) was 92 µM; in assay [2] (Exp.1, unstarred values), 172 µM; in assay [2] (Exp.2), 66.2 µM; in assay [5] (Exp.2), 65.1 µM. The EC50 worked out at 182 µM in assay [1] (Exp.2, * denotes EC50 value, read-out: EC50 value (starred) MB231-TXSA) and 303 µM in [5] (Exp.1). In assay [4], the “antiproliferative activity compared with bpp(OEt)” value is given as “increased”. In addition, in [4] (upon esterification of γ-tocopherol), the “antiproliferative activity compared with γ-tocopherol” value is reported as “increased”. The “effect on cell viability” value in assay [4] is listed as “reduced cell viability”. For the same compound, the “apoptotic nuclei (condensed chromatin, fractured nuclei) by DAPI staining” value in assay [9] is “increased numbers of apoptotic nuclei”. Also, the “pro-apoptotic activity (Caspase-3 activity)” value in assay [10] is “did not show significant pro-apoptotic activity”.

One may read the IC50 as the midpoint of a concentration-inhibition curve. In general, EC50 refers to the concentration giving half of the maximal effect.

The values above are taken from US11400160B2, “Multifunctional conjugates” (E.P.O.S IASIS Research and Development Limited, priority 2017, dated 2022).
